Measurements published in ChEMBL document CHEMBL5625197, “The mystery of titan hunter: Rationalized striking of the MAPK pathway via Newly synthesized 6-Indolylpyridone-3-Carbonitrile derivatives” (Eur J Med Chem, 2023).

What was measured:
HOP-92 [1] = test: cells; type: functional; details: Homo sapiens, HOP-92, 96 h, time 4 day, read-out: GI
Description: Growth inhibition of human HOP-92 cells at 10 uM incubated for 4 days by MTT assay relative to control

SR [2] = test: cells; type: functional; details: Homo sapiens, 96 h, time 4 day, read-out: GI
Description: Growth inhibition of human SR cells at 10 uM incubated for 4 days by MTT assay relative to control

RXF 393 [3] = test: cells; type: functional; details: Homo sapiens, RXF 393, 96 h, time 4 day, read-out: GI
Description: Growth inhibition of human RXF 393 cells at 10 uM incubated for 4 days by MTT assay relative to control

HCT-116 [4] = test: cells; type: functional; details: Homo sapiens, HCT-116, 96 h, time 4 day, read-out: GI
Description: Growth inhibition of human HCT-116 cells at 10 uM incubated for 4 days by MTT assay relative to control

HOP-92 [5] = test: Inhibition of cell invasion in human HOP-92 cells incubated for 15 to 20 mins by crystal violet staining based trans-well assay relative to control; type: functional; details: time 15-20 min
[6] = Selectivity index, ratio of GI50 for cytotoxicity against human PCS-800-011 cells to GI50 for cytotoxicity against human SR cells; type: toxicity, cell-based; details: PCS-800-011 cells versus SR cells, read-out: RatioGI50
[7] = Cytotoxicity against human FHC cells assessed as cell growth inhibition incubated for 4 days by MTT assay
[8] = target: Cyclin-dependent kinase 6 (Homo sapiens, UniProt Q00534); test: Inhibition of CDK6 (unknown origin)
Sequence of Cyclin-dependent kinase 6 (Q00534 whole entry): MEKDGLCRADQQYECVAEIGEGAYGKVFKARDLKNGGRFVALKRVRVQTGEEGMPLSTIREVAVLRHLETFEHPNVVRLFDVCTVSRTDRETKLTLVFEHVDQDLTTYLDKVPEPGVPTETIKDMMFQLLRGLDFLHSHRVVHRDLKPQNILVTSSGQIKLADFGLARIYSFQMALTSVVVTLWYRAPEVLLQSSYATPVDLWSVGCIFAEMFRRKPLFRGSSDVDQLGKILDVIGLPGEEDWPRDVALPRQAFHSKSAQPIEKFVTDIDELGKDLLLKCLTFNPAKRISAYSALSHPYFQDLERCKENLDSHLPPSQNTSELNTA

HOP-92 [9] = test: Induction of apoptosis in human HOP-92 cells assessed as early apoptotic rate by Annexin V/ PI staining based flow cytometry (reference value: 0.42 %); type: functional
HOP-92 [10] = test: Cytotoxicity against human HOP-92 cells assessed as cell growth inhibition incubated for 4 days by MTT assay; type: functional; details: HOP-92, 96 h, time 4 day
HCT-116 [11] = test: Cytotoxicity against human HCT-116 cells assessed as cell growth inhibition incubated for 4 days by MTT assay; type: functional; details: HCT-116, 96 h, time 4 day
[12] = Selectivity index, ratio of GI50 for cytotoxicity against human FHC cells to GI50 for cytotoxicity against human HCT-116 cells; type: toxicity, cell-based; details: FHC cells versus HCT-116 cells, read-out: RatioGI50
[13] = target: Serine/threonine-protein kinase B-raf (Homo sapiens, UniProt P15056, V600E); test: Inhibition of B-RAF V600E mutant (unknown origin)
Sequence of Serine/threonine-protein kinase B-raf (Homo sapiens, UniProt P15056, V600E) (P15056 2-766 V600E limits assumed): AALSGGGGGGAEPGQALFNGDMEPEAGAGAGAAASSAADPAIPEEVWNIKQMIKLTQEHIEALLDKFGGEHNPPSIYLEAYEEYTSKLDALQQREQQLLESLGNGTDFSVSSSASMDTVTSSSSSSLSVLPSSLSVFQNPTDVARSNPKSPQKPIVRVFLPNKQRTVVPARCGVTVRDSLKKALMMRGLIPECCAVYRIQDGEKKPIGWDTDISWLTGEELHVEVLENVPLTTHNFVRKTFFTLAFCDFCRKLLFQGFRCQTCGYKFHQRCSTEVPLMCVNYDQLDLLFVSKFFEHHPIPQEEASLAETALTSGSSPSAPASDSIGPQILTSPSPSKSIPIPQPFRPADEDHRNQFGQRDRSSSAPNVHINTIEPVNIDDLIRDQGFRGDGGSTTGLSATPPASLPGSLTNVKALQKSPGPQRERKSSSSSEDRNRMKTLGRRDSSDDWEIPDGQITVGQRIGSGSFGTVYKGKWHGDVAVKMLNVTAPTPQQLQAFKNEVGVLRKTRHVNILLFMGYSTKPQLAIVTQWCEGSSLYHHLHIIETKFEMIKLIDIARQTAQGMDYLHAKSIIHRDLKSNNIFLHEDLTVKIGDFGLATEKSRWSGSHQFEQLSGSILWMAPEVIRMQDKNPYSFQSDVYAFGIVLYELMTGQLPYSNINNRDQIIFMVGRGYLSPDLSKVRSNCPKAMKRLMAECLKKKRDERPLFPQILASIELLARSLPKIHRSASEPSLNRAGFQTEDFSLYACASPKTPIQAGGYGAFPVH

HOP-92 [14] = test: Induction of apoptosis in human HOP-92 cells assessed as late apoptotic rate by Annexin V/ PI staining based flow cytometry (reference value: 0.26 %); type: functional
HOP-92 [15] = test: Induction of apoptosis in human HOP-92 cells assessed as fold change in Bax gene expression by RT-PCR analysis; type: functional
HOP-92 [16] = test: Induction of apoptosis in human HOP-92 cells assessed as total apoptotic rate by Annexin V/ PI staining based flow cytometry (reference value: 2.28 %); type: functional
HOP-92 [17] = test: Inhibition of cell migration in human HOP-92 cells assessed as fold decrease in cell count incubated for 15 to 20 mins by crystal violet staining based trans-well assay; type: functional; details: time 15-20 min
HOP-92 [18] = test: Induction of apoptosis in human HOP-92 cells assessed as fold change in ratio of Bax/Bcl-2 gene expression by RT-PCR analysis; type: functional
[19] = Cytotoxicity against human PCS-800-011 cells assessed as fold change in cell growth inhibition incubated for 4 days by MTT assay; type: toxicity, cell-based; details: pcs-800-011, 96 h, time 4 day
HOP-92 [20] = test: Induction of apoptosis in human HOP-92 cells assessed as fold change in caspase-9 gene expression by RT-PCR analysis; type: functional
HOP-92 [21] = test: Induction of cell cycle arrest in human HOP-92 cells assessed as cell aggregation (reference value: 1.77 %); type: functional
[22] = Selectivity index, ratio of GI50 for cytotoxicity against human MRC5 cells to GI50 for cytotoxicity against human HOP-92 cells
HOP-92 [23] = test: Induction of apoptosis in human HOP-92 cells assessed as fold change in caspase-8 gene expression by RT-PCR analysis; type: functional
[24] = Cytotoxicity against human HEK293 cells assessed as cell growth inhibition incubated for 4 days by MTT assay
HOP-92 [25] = test: Induction of cell cycle arrest in human HOP-92 cells assessed as cell debris (reference value: 2.18 %); type: functional
[26] = target: Cyclin-dependent kinase 4 (Homo sapiens, UniProt P11802); test: Inhibition of CDK4 (unknown origin)
Sequence of Cyclin-dependent kinase 4 (P11802 whole entry): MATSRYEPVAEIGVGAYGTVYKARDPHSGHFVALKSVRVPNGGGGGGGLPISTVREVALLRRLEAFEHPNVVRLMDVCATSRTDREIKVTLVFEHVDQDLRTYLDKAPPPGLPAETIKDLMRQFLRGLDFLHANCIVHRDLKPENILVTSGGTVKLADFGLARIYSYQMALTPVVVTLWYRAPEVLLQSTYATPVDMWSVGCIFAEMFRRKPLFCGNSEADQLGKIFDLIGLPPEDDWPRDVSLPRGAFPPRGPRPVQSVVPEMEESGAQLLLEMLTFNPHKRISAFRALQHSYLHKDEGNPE

HOP-92 [27] = test: Induction of cell cycle arrest in human HOP-92 cells assessed as accumulation of cells at G0/G1 phase (reference value: 54.83 %); type: functional
HOP-92 [28] = test: Induction of apoptosis in human HOP-92 cells assessed as PARP1 gene expression level by RT-PCR analysis relative to control; type: functional
HOP-92 [29] = test: Induction of apoptosis in human HOP-92 cells assessed as fold change in PARP1 gene expression by RT-PCR analysis; type: functional
HOP-92 [30] = test: Induction of apoptosis in human HOP-92 cells assessed as fold change in TNFR1 gene expression by RT-PCR analysis; type: functional
HOP-92 [31] = test: Induction of apoptosis in human HOP-92 cells assessed as necrosis rate by Annexin V/ PI staining based flow cytometry (reference value: 1.6 %); type: functional
[32] = target: Hepatocyte growth factor receptor (Homo sapiens, UniProt P08581); test: Inhibition of c-Met (unknown origin)
[33] = Selectivity index, ratio of GI50 for cytotoxicity against human HEK293 cells to GI50 for cytotoxicity against human RXF 393 cells
[34] = Cytotoxicity against human MRC5 cells assessed as cell growth inhibition incubated for 4 days by MTT assay
HOP-92 [35] = test: Inhibition of cell migration in human HOP-92 cells incubated for 15 to 20 mins by crystal violet staining based trans-well assay relative to control; type: functional; details: time 15-20 min
[36] = target: Epidermal growth factor receptor (Homo sapiens, UniProt P00533, T790M); test: Inhibition of EGFR T790M mutant (unknown origin)
Sequence of Epidermal growth factor receptor (Homo sapiens, UniProt P00533, T790M) (P00533 25-1210 T790M limits assumed): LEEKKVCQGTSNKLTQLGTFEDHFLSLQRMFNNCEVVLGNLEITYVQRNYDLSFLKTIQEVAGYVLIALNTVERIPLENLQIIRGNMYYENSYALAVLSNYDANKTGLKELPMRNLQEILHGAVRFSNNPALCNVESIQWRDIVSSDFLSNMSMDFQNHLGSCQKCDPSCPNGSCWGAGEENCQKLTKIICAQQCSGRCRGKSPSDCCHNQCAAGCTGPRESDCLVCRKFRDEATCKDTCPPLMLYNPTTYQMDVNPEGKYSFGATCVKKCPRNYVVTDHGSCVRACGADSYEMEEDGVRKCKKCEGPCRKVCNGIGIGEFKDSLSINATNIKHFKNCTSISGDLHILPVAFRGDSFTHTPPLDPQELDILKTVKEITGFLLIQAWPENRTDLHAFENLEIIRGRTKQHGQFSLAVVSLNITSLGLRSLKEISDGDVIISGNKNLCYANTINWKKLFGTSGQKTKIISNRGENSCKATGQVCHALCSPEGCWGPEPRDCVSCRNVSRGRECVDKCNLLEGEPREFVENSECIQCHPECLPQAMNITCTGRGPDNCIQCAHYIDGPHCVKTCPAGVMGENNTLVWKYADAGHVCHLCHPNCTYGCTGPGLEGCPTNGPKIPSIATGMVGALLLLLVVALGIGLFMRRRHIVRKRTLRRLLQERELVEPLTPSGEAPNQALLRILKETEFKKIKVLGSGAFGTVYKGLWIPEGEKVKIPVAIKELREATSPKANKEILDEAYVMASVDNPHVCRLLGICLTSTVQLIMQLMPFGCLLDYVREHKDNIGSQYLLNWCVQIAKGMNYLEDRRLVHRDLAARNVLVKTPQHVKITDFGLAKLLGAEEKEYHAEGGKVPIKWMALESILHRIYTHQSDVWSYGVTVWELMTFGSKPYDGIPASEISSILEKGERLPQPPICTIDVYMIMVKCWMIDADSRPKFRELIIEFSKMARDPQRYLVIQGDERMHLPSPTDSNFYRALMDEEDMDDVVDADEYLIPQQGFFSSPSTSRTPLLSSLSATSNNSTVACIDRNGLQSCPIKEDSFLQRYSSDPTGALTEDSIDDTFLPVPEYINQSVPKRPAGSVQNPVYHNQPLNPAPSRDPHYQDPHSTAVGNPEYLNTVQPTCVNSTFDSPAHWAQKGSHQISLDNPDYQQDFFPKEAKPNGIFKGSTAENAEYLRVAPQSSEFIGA

[37] = target: Epidermal growth factor receptor (Homo sapiens, UniProt P00533); test: Inhibition of wild type EGFR (unknown origin)
Sequence of Epidermal growth factor receptor (Homo sapiens, UniProt P00533) (P00533 whole entry): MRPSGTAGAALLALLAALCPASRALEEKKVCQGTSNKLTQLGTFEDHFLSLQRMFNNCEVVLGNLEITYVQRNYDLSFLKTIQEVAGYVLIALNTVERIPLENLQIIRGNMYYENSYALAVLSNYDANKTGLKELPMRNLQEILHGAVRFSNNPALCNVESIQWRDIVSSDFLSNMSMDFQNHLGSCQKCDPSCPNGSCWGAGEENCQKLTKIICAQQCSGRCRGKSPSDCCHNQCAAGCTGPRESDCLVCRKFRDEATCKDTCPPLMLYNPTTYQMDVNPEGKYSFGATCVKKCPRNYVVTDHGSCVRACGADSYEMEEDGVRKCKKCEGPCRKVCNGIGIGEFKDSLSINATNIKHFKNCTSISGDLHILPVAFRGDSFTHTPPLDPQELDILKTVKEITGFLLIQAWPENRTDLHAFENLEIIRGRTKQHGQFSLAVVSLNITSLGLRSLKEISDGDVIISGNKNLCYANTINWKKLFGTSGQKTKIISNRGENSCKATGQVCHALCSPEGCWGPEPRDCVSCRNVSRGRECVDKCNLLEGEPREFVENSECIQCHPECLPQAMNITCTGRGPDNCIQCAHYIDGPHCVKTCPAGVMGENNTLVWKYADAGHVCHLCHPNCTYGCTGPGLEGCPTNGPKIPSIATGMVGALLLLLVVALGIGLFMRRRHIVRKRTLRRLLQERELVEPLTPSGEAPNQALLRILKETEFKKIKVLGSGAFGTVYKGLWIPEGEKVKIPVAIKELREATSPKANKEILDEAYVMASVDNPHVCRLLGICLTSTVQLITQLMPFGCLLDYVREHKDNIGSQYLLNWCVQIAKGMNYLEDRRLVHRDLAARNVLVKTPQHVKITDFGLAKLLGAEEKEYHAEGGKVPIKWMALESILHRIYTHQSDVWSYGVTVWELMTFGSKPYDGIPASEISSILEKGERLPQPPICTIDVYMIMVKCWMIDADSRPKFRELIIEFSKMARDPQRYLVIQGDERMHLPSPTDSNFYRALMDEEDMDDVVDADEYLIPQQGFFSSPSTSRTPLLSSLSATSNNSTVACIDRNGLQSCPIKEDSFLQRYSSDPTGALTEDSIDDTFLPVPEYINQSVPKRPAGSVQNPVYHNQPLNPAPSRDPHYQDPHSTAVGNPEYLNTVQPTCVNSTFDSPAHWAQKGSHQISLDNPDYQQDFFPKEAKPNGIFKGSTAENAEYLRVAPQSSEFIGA

HOP-92 [38] = test: Induction of apoptosis in human HOP-92 cells assessed as fold change in caspase-3 gene expression by RT-PCR analysis; type: functional
SR [39] = test: Cytotoxicity against human SR cells assessed as cell growth inhibition incubated for 4 days by MTT assay; type: functional; details: 96 h, time 4 day
[40] = Cytotoxicity against human PCS-800-011 cells assessed as cell growth inhibition incubated for 4 days by MTT assay
HOP-92 [41] = test: Induction of cell cycle arrest in human HOP-92 cells assessed as accumulation of cells at S phase (reference value: 29.57 %); type: functional
RXF 393 [42] = test: Cytotoxicity against human RXF 393 cells assessed as cell growth inhibition incubated for 4 days by MTT assay; type: functional; details: RXF 393, 96 h, time 4 day
[43] = target: Serine/threonine-protein kinase B-raf (Homo sapiens, UniProt P15056); test: Inhibition of wild type B-RAF (unknown origin)
Sequence of Serine/threonine-protein kinase B-raf (Homo sapiens, UniProt P15056) (P15056 whole entry): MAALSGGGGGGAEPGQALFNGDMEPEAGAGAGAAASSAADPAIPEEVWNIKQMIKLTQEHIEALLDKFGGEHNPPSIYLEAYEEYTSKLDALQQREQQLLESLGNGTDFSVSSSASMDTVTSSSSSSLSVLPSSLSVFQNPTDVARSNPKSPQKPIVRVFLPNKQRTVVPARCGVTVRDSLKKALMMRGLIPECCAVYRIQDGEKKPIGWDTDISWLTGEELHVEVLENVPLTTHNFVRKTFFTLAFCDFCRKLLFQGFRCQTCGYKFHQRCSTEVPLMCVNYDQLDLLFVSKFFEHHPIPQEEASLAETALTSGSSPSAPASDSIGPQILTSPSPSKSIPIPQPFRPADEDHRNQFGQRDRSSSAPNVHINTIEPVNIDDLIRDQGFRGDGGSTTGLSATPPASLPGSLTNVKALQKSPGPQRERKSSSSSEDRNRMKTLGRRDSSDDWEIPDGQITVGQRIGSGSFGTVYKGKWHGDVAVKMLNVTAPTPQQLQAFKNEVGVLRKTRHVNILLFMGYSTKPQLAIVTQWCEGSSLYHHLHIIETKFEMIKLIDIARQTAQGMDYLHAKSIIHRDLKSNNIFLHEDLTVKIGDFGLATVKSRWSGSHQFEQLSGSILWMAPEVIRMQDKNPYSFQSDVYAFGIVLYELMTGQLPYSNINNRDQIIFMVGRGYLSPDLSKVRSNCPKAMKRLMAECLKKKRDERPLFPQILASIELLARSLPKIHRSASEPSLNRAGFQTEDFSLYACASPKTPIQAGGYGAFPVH

HOP-92 [44] = test: Inhibition of colony formation in human HOP-92 cells incubated for 24 hrs by crystal violet staining based assay relative to control; type: functional
HOP-92 [45] = test: Induction of apoptosis in human HOP-92 cells assessed as fold change in p53 gene expression by RT-PCR analysis; type: functional
HOP-92 [46] = test: Induction of apoptosis in human HOP-92 cells assessed as fold change in Bcl-2 gene expression by RT-PCR analysis; type: functional
HOP-92 [47] = test: Induction of cell cycle arrest in human HOP-92 cells assessed as accumulation of cells at G2/M phase (reference value: 15.6 %); type: functional

Work on N#Cc1c(-c2cccc([N+](=O)[O-])c2)cc(-c2c[nH]c3ccccc23)[nH]c1=O yielded an inhibition of growth at 10 µM (HOP-92 [1]) of 9.93%, an inhibition of growth at 10 µM (SR [2]) of 18.1% and an inhibition of growth at 10 µM (RXF 393 [3]) of 16.9%. The inhibition of growth at 10 µM (HCT-116 [4]) was 6.36%.

Compound N#Cc1c(-c2ccccc2[N+](=O)[O-])cc(-c2c[nH]c3ccccc23)[nH]c1=O has an inhibition of growth at 10 µM (HOP-92 [1]) of 68.5%, an inhibition of growth at 10 µM (SR [2]) of 69% and an inhibition of growth at 10 µM (RXF 393 [3]) of 64.8%. For the same compound, the inhibition of growth at 10 µM (HCT-116 [4]) was 59.5%.

N#Cc1c(-c2cccc(Cl)c2)cc(-c2c[nH]c3ccccc23)[nH]c1=O gave an inhibition of growth at 10 µM (HOP-92 [1]) of 38.6%, an inhibition of growth at 10 µM (SR [2]) of 71.9% and an inhibition of growth at 10 µM (RXF 393 [3]) of 67.5%. It also gave an inhibition of growth at 10 µM (HCT-116 [4]) of 51.1%.

With N#Cc1c(-c2ccc(Cl)cc2Cl)cc(-c2c[nH]c3ccccc23)[nH]c1=O the “inhibition (INH)” value (HOP-92 [5]) was 49.99%, the selectivity ratio [6] was 18 and the GI50 at 96 h [7] was 26.8 µM. The IC50 [8] was 0.184 µM, the Activity (HOP-92 [9]) was 24.18% and the GI50 (HOP-92 [10]) was 0.75 µM. The GI50 (HCT-116 [11]) was 2.53 µM, the selectivity ratio [12] was 10.6 and the IC50 [13] was 0.083 µM. For the same compound, the Activity (HOP-92 [14]) was 14.91%, the “fold change (FC)” value (HOP-92 [15]) was 5.49 and the Activity (HOP-92 [16]) was 46.71%. The “fold change (FC)” value (HOP-92 [17]) was 2.6, the “fold change (FC)” value (HOP-92 [18]) was 30.5 and the “fold change (FC)” value [19] was 2.3. The “fold change (FC)” value (HOP-92 [20]) was 6.75, the Activity (HOP-92 [21]) was 1.88% and the inhibition of growth at 10 µM (HOP-92 [1]) was 79.8%. The RatioGI50 [22] was 37.87, the “fold change (FC)” value (HOP-92 [23]) was 2.99 and the inhibition of growth at 10 µM (SR [2]) was 74.7%. It also gave a GI50 at 96 h [24] of 22.4 µM, an Activity (HOP-92 [25]) of 2.12% and an inhibition of growth at 10 µM (RXF 393 [3]) of 58.4%. The IC50 [26] was 0.095 µM, the Activity (HOP-92 [27]) was 59.18% and the inhibition of growth at 10 µM (HCT-116 [4]) was 82.8%. For the same compound, the Activity (HOP-92 [28]) was 20%, the “fold change (FC)” value (HOP-92 [29]) was 0.23 and the “fold change (FC)” value (HOP-92 [30]) was 0.27. For the same compound, the Activity (HOP-92 [31]) was 7.62%, the IC50 [32] was 0.205 µM and the RatioGI50 [33] was 7.18. For the same compound, the GI50 at 96 h [34] was 28.5 µM, the “inhibition (INH)” value (HOP-92 [35]) was 61.59% and the IC50 [36] was 0.069 µM. The IC50 [37] was 0.281 µM, the “fold change (FC)” value (HOP-92 [38]) was 7.93 and the GI50 (SR [39]) was 2.77 µM. It also gave a GI50 at 96 h [40] of 49.7 µM, an Activity (HOP-92 [41]) of 34.11% and a GI50 (RXF 393 [42]) of 3.12 µM. The IC50 [43] was 0.112 µM, the “inhibition (INH)” value (HOP-92 [44]) was 61.6% and the “fold change (FC)” value (HOP-92 [45]) was 5.97. The “fold change (FC)” value (HOP-92 [46]) was 0.18 and the Activity (HOP-92 [47]) was 6.71%.

Work on N#Cc1c(-c2cccnc2)cc(-c2c[nH]c3ccccc23)[nH]c1=O yielded an inhibition of growth at 10 µM (HOP-92 [1]) of 13%, an inhibition of growth at 10 µM (SR [2]) of 13.2% and an inhibition of growth at 10 µM (RXF 393 [3]) of -0.69%. For the same compound, the inhibition of growth at 10 µM (HCT-116 [4]) was 9.94%.

In the case of N#Cc1c(-c2cccc(Cl)c2Cl)cc(-c2c[nH]c3ccccc23)[nH]c1=O, the selectivity ratio [6] is reported as 3.74, the GI50 at 96 h [7] is reported as 65.7 µM and the GI50 (HOP-92 [10]) is reported as 15.4 µM. For the same compound, the GI50 (HCT-116 [11]) was 8.12 µM, the selectivity ratio [12] was 8.09 and the “fold change (FC)” value [19] was 4. It also gave an inhibition of growth at 10 µM (HOP-92 [1]) of 77.8%, a RatioGI50 [22] of 4.62 and an inhibition of growth at 10 µM (SR [2]) of 57.6%. The GI50 at 96 h [24] was 61 µM, the inhibition of growth at 10 µM (RXF 393 [3]) was 63.2% and the inhibition of growth at 10 µM (HCT-116 [4]) was 81.7%. The RatioGI50 [33] was 3.8, the GI50 at 96 h [34] was 71.3 µM and the GI50 (SR [39]) was 22.3 µM. For the same compound, the GI50 at 96 h [40] was 83.4 µM and the GI50 (RXF 393 [42]) was 16.1 µM.

COc1cc(-c2cc(-c3c[nH]c4ccccc34)[nH]c(=O)c2C#N)ccc1O showed an inhibition of growth at 10 µM (HOP-92 [1]) of 53.5%, an inhibition of growth at 10 µM (SR [2]) of 52.1% and an inhibition of growth at 10 µM (RXF 393 [3]) of 65%. It also gave an inhibition of growth at 10 µM (HCT-116 [4]) of 64.4%.
